According to patent publication US9949475B2, “Composition comprising active ingredient, oil and ionic liquid” (priority 2011, dated 2018):
≈ marks a conversion by molar mass, not a printed value. Where two headings read alike, the source gives them in different places.

Assay: Solubility of agrochemical active ingredient in oil comprising ionic liquid
Assay type: physicochemical
Conditions: for solubility: 21 °C, thermodynamic from solid
Text: Alternatively, the oil, which comprised the ionic liquid, was saturated with the active ingredient and the soluble fraction of active ingredient was quantified by means of HPLC. In the first line of the tables, in each case the weight ratios of oil to IL are given.

With Cn1cc(C(=O)Nc2ccccc2-c2cc(F)c(F)c(F)c2)c(C(F)F)n1 [fluxapyroxad, 3-(difluoromethyl)-1-methyl-N-(3′,4′,5′-trifluorobiphenyl-2-yl)pyrazole-4-carboxamide] the “Solubility of fluxapyroxad with Agnique AMD 12 ® (N,N-dimethyldodecanamide, lauryl N,N-dimethylamide) as oil” value (“Solubility of fluxapyroxad” below) (21° C., Oil/IL 20/80 weight ratio, IL N-butyl-N′-methylimidazolium acetate) was 43.1 mg/mL, the “Solubility of fluxapyroxad” value (21° C., Oil/IL 20/80 weight ratio, IL N-ethyl-N′-methylimidazolium acetate) was 39.5 mg/mL and the “Solubility of fluxapyroxad” value (21° C., Oil/IL 20/80 weight ratio, IL N-ethyl-N′-methylimidazolium isononanoate) was 38.4 mg/mL. For the same molecule, the “Solubility of fluxapyroxad” value (21° C., Oil/IL 20/80 weight ratio, IL Tetrabutylammonium [2-(2-methoxyethoxy)ethoxy]acetate) was 37.5 mg/mL, the “Solubility of fluxapyroxad” value (21° C., Oil/IL 60/40 weight ratio, IL N-butyl-N′-methylimidazolium acetate) was 55.9 mg/mL and the “Solubility of fluxapyroxad” value (21° C., Oil/IL 60/40 weight ratio, IL N-ethyl-N′-methylimidazolium acetate) was 40.4 mg/mL. The “Solubility of fluxapyroxad” value (21° C., Oil/IL 60/40 weight ratio, IL N-ethyl-N′-methylimidazolium isononanoate) was 48.1 mg/mL, the “Solubility of fluxapyroxad” value (21° C., Oil/IL 60/40 weight ratio, IL Tetrabutylammonium [2-(2-methoxyethoxy)ethoxy]acetate) was 33.1 mg/mL and the “Solubility of fluxapyroxad” value (21° C., Oil/IL 90/10 weight ratio, IL N-ethyl-N′-methylimidazolium acetate) was 38.2 mg/mL. For the same molecule, the “Solubility of fluxapyroxad” value (21° C., Oil/IL 90/10 weight ratio, IL Tetrabutylammonium [2-(2-methoxyethoxy)ethoxy]acetate) was 29.7 mg/mL, the solubility (oil or lipid, 21° C., Oil/IL 20/80 weight ratio, IL N-ethyl-N′-ethylimidazolium propionate, read-out: Solubility of fluxapyroxad with Solvesso ® 200 ND as oil) was 39.4 mg/mL and the solubility (oil or lipid, 21° C., Oil/IL 20/80 weight ratio, IL N-ethyl-N′-methylimidazolium isononanoate, read-out: Solubility of fluxapyroxad with Solvesso ® 200 ND as oil) was 28.6 mg/mL. It also gave a solubility (oil or lipid, 21° C., Oil/IL 60/40 weight ratio, IL N-ethyl-N′-ethylimidazolium propionate, read-out: Solubility of fluxapyroxad with Solvesso ® 200 ND as oil) of 50.5 mg/mL, a solubility (oil or lipid, 21° C., Oil/IL 60/40 weight ratio, IL N-ethyl-N′-methylimidazolium isononanoate, read-out: Solubility of fluxapyroxad with Solvesso ® 200 ND as oil) of 42.9 mg/mL and a solubility (oil or lipid, 21° C., Oil/IL 90/10 weight ratio, IL N-ethyl-N′-ethylimidazolium propionate, read-out: Solubility of fluxapyroxad with Solvesso ® 200 ND as oil) of 21.3 mg/mL. For the same molecule, the solubility (oil or lipid, 21° C., Oil/IL 90/10 weight ratio, IL N-ethyl-N′-methylimidazolium isononanoate, read-out: Solubility of fluxapyroxad with Solvesso ® 200 ND as oil) was 15.3 mg/mL, the solubility (oil or lipid, 21° C., Oil/IL 90/10 weight ratio, IL Tetrabutylammonium [2-(2-methoxyethoxy)ethoxy]acetate, read-out: Solubility of fluxapyroxad with Solvesso ® 200 ND as oil) was 18.4 mg/mL and the solubility (oil or lipid, Solubility of fluxapyroxad with Agnique AMD 12 ® (N,N-dimethyldodecanamide, lauryl N,N-dimethylamide) as oil) was 25.9 mg/mL (≈ 67.9 mM). It also gave a solubility (organic solvent or mixture, 21° C., 100 IL (no oil), IL N-ethyl-N′-methylimidazolium isononanoate, read-out: Solubility of fluxapyroxad with Cetiol ® B as oil) of 9.5 mg/mL (≈ 24.9 mM), a solubility (organic solvent or mixture, 21° C., 100 IL (no oil), IL N-ethyl-N′-methylimidazolium isononanoate, read-out: Solubility of fluxapyroxad with Solvesso ® 200 ND as oil) of 9.5 mg/mL (≈ 24.9 mM) and a solubility (organic solvent or mixture, 21° C., 100 IL (no oil), IL Tetrabutylammonium [2-(2-methoxyethoxy)ethoxy]acetate, read-out: Solubility of fluxapyroxad with Solvesso ® 200 ND as oil) of 9.5 mg/mL (≈ 24.9 mM). The solubility (organic solvent or mixture, Solubility of fluxapyroxad with Agnique AMD 12 ® (N,N-dimethyldodecanamide, lauryl N,N-dimethylamide) as oil) was 5 mg/mL (≈ 13.1 mM), the solubility (organic solvent or mixture, Solubility of fluxapyroxad with Cetiol ® B as oil) was 5 mg/mL (≈ 13.1 mM) and the solubility (organic solvent or mixture, Solubility of fluxapyroxad with Solvesso ® 200 ND as oil) was 5 mg/mL (≈ 13.1 mM). The solubility (Cetiol B / N-ethyl-N′-methylimidazolium isononanoate mixture, oil or lipid, 21° C., Oil/IL 20/80 weight ratio, IL N-ethyl-N′-methylimidazolium isononanoate, read-out: Solubility of fluxapyroxad with Cetiol ® B as oil) was 48.7 mg/mL, the solubility (Cetiol B / N-ethyl-N′-methylimidazolium isononanoate mixture, oil or lipid, 21° C., Oil/IL 60/40 weight ratio, IL N-ethyl-N′-methylimidazolium isononanoate, read-out: Solubility of fluxapyroxad with Cetiol ® B as oil) was 46.7 mg/mL and the solubility (Cetiol B / N-ethyl-N′-methylimidazolium isononanoate mixture, oil or lipid, 21° C., Oil/IL 90/10 weight ratio, IL N-ethyl-N′-methylimidazolium isononanoate, read-out: Solubility of fluxapyroxad with Cetiol ® B as oil) was 20.7 mg/mL. It also gave a solubility (Cetiol B / cholinium octanoate mixture, oil or lipid, 21° C., Oil/IL 20/80 weight ratio, IL Cholinium octanoate, read-out: Solubility of fluxapyroxad with Cetiol ® B as oil) of 34.2 mg/mL, a solubility (Cetiol B oil comprising ionic liquid, oil or lipid, 21° C., Oil/IL 20/80 weight ratio, IL N-butyl-N′-methylimidazolium acetate, read-out: Solubility of fluxapyroxad with Cetiol ® B as oil) of 54.9 mg/mL and a solubility (Cetiol B oil comprising ionic liquid, oil or lipid, 21° C., Oil/IL 20/80 weight ratio, IL N-butyl-N′-methylimidazolium dimethylphosphate, read-out: Solubility of fluxapyroxad with Cetiol ® B as oil) of 44.1 mg/mL. The solubility (Cetiol B oil comprising ionic liquid, oil or lipid, 21° C., Oil/IL 20/80 weight ratio, IL N-ethyl-N′-ethylimidazolium propionate, read-out: Solubility of fluxapyroxad with Cetiol ® B as oil) was 60.2 mg/mL, the solubility (Cetiol B oil comprising ionic liquid, oil or lipid, 21° C., Oil/IL 20/80 weight ratio, IL N-ethyl-N′-methylimidazolium acetate, read-out: Solubility of fluxapyroxad with Cetiol ® B as oil) was 56.2 mg/mL and the solubility (Cetiol B oil comprising ionic liquid, oil or lipid, 21° C., Oil/IL 20/80 weight ratio, IL N-ethyl-N′-methylimidazolium dibutylphosphate, read-out: Solubility of fluxapyroxad with Cetiol ® B as oil) was 16.8 mg/mL. The solubility (Cetiol B oil comprising ionic liquid, oil or lipid, 21° C., Oil/IL 20/80 weight ratio, IL N-ethyl-N′-methylimidazolium heptanoate, read-out: Solubility of fluxapyroxad with Cetiol ® B as oil) was 28.4 mg/mL, the solubility (Cetiol B oil comprising ionic liquid, oil or lipid, 21° C., Oil/IL 20/80 weight ratio, IL N-ethyl-N′-methylimidazolium octanoate, read-out: Solubility of fluxapyroxad with Cetiol ® B as oil) was 25.7 mg/mL and the solubility (Cetiol B oil comprising ionic liquid, oil or lipid, 21° C., Oil/IL 20/80 weight ratio, IL N-propyl-N′-propylimidazolium acetate, read-out: Solubility of fluxapyroxad with Cetiol ® B as oil) was 59.2 mg/mL. For the same molecule, the solubility (Cetiol B oil comprising ionic liquid, oil or lipid, 21° C., Oil/IL 20/80 weight ratio, IL Tetrabutylammonium [2-(2-methoxyethoxy)ethoxy]acetate, read-out: Solubility of fluxapyroxad with Cetiol ® B as oil) was 38.3 mg/mL, the solubility (Cetiol B oil comprising ionic liquid, oil or lipid, 21° C., Oil/IL 60/40 weight ratio, IL Cholinium octanoate, read-out: Solubility of fluxapyroxad with Cetiol ® B as oil) was 33.6 mg/mL and the solubility (Cetiol B oil comprising ionic liquid, oil or lipid, 21° C., Oil/IL 60/40 weight ratio, IL N-butyl-N′-methylimidazolium acetate, read-out: Solubility of fluxapyroxad with Cetiol ® B as oil) was 50.6 mg/mL.
